Consider two molecules from publication PMC10485906, “Development of a Dihydroquinoline–Pyrazoline GluN2C/2D-Selective Negative Allosteric Modulator of the N-Methyl-D-aspartate Receptor” (ACS Chemical Neuroscience, 2023).

The structures appear in SMILES notation. Read-outs that look alike come from different tables or passages of the source.

The nature of data set [1]: Liver microsome stability, human. It counts as in vitro ADME. The settings on record: for microsomal CLint at 3 μM: human liver microsomes; for half-life at 3 μM: liver microsomes, incubation up to 30 min, read-out: liver microsome stability T1/2, human. Here is the method: Human liver microsomes (HLMs, 20 mg/mL) and CD-1 mouse liver microsomes (MLMs, 20 mg/mL) were purchased from Xenotech. NADPH was purchased from Sigma-Aldrich and prepared in 10 mM stock solutions of distilled H2O (Invitrogen UltraPure). Verapamil and diphenhydramine were both purchased from Sigma-Aldrich and served as positive controls for HLM and MLM stability, respectively. Test compounds and positive controls were initially dissolved in DMSO to make 10 mM stock solutions. Sample solutions were then further diluted in 70% MeOH/H2O or 100% MeCN to 500 μM. Next, the reactions were prepared by mixing human or mouse liver microsomes (55 μL) with potassium phosphate buffer (100 mM, […]) in 1.5 mL Eppendorf tubes. The test compounds (6.6 μL of 500 μM solution) were subsequently added to the suspensions, and the reaction mixtures were incubated at 37 °C for 5 min. Afterward, the liver microsome reactions were initiated with 110 μL of 10 mM NADPH and further incubated at 37 °C for the designated time course of the study. This procedure provided experiments with a final volume of 1100 μL (<0.6% organic solvent content), a concentration for HLMs and MLMs of 1 mg/mL, and a final test compound concentration of 3 μM. Aliquots (100 μL) were removed from each reaction mixture in duplicate at 0, 5, 10, 15, and 30 min time intervals and quenched with 100 μL of cold internal standard solution (ISTD, 2 μM 7-ethoxy-d5-coumarin in MeOH or MeCN). Quenched aliquots were then centrifuged at 12 500 g for 5–10 min, and the resulting supernatants were withdrawn and placed in LC-MS vials to be analyzed by LC-MS/MS (Agilent G6460C QQQ MS coupled with an Infinity II 1260 HPLC). Each test compound was run in tandem with positive and negative control experiments for quality assurance. Positive control reactions were conducted at a final volume of 550 μL for a single run at each time point. Lastly, the negative control experiment was conducted with test compounds and liver microsomes in the absence of NADPH (150 μL) and analyzed at the 30 min time point.
(§1) For both LM and plasma assays, each data point was analyzed in triplicate using between blank washes to avoid carry over and to equilibrate the column for the subsequent runs. Averages of these triplicates for individual compounds at each time point were then normalized to the data at 0 min, representing 100% of the test compound remaining or 0% metabolism. Half-lives (t1/2) were calculated by plotting ln of % test compound remaining versus time and performing linear regression to determine slope. Slope = −k and t1/2 = 0.693/k for first-order kinetics (see Figures S5 and S6 for a representative example).

The nature of data set [2]: Brain homogenate tissue binding and stability (RED device). The conditions noted are these: for fraction unbound at 4 h, 5 µM / remaining at 4 h, 5 µM: C57BL/6, mouse, brain homogenate (4 times diluted); for remaining at 4 h, 5 µM: pH 7.4, starting concentration 5 μM; for recovery at 4 h, 5 μM: C57BL/6, pH 7.4, mouse brain tissue binding; for Average 2i Concentration, Buffer_Mice: buffer chamber after 4 h dialysis. It counts as in vitro ADME, mouse. Here is the method: Carbamazepine (Apin Chemicals) served as a positive control for brain tissue binding. Test compounds and the positive control were initially dissolved in DMSO to make 1 mM stock solutions. […] A rapid equilibrium dialysis (RED) device (Thermo Scientific) containing a dialysis membrane with a molecular weight cutoff of 8000 Da was used to assess tissue binding and metabolic stability. […] The test compounds and positive control (200 μL of 5 μM solution) were added to the red chamber of the dialysis insert, while the white chamber was filled with dialysis buffer (350 μL). The RED device was then sealed with an adhesive film and incubated at 37 °C with shaking (300 rpm) for 4 h. For the initial time point (t = 0 min), 50 μL aliquots of test compounds and the positive control were added to 96-deep well plates (0.7 mL per well) and quenched with 400 μL of MeCN. Following dialysis, another 50 μL aliquot of the tested samples was removed from each well (brain homogenate and buffer) and diluted with an equal volume of the opposite matrix to nullify any matrix effects. […] The supernatant (100 μL) was subsequently transferred to 96-deep well plates for LC-MS/MS analysis. Prodrug metabolism and 2i concentrations were determined by fit-for-purpose LC-MS/MS methods on a nine-point calibration curve ranging from 0.12 to 7.5 μM.

A short description of data set [3]: Plasma stability, mouse. The settings on record: male, BALB/C, mouse, mouse plasma; incubation up to 120 min; 3 μM; read-out: plasma stability T1/2, mouse. It counts as in vitro ADME. Here is the method:
Human plasma (lithium heparin (LiHep) mixed, gender pooled, 0.2 μm filtered) and mouse plasma (BALB/C, LiHep mixed, male pooled, 0.2 μm filtered) were purchased from BioIVT. Procaine (Sigma-Aldrich) served as a positive control for both human and mouse plasma experiments. Test compounds and positive controls were initially dissolved in DMSO to make 10 mM stock solutions. The solutions of test and control compounds were then further diluted in 70% MeOH/H2O or 100% MeCN to 500 μM. Next, the human or mouse plasma (994 μL) was aliquoted into 1.5 mL Eppendorf tubes with duplicates (reactions A and B) being prepared for each compound. The plasma was then incubated at 37 °C for 10 min. Afterward, the reaction was initiated by the addition of the test compound (6 μL of 500 μM solution) and further incubated at 37 °C for the designated time course of the study. This procedure provided duplicate experiments with a final volume of 1000 μL (<0.6% organic solvent content) and a final test compound concentration of 3 μM. Aliquots (100 μL) were removed from each reaction mixture at 0, 15, 30, 60, and 120 min time intervals and quenched with 150 μL of cold ISTD solution (2 μM 7-ethoxy-d5-coumarin in MeOH or MeCN). Quenched aliquots were then centrifuged at 15,000 g for 30–45 min, and the resulting supernatants (∼70 μL) were withdrawn and placed in LC-MS vials to be analyzed by LC-MS/MS (Agilent G6460C QQQ MS coupled with an Infinity II 1260 HPLC). Each test compound was run in tandem with positive and negative control experiments for quality assurance. The positive control reaction was conducted at a final volume of 1000 μL for a single run at each time point. Finally, the negative control experiment was conducted with test compounds in DPBS (143 μL) and analyzed at the 120 min time point.
as §1

Data set [4] concerns the target T1, CYP2D6 (Homo sapiens, UniProt P10635).
T1 construct: purchased Corning; host or cells: insect cells (microsomes)
Description: Fluorometric CYP450 enzyme inhibition assay, CYP2D6. It counts as in vitro ADME. The conditions noted are these: n = 2 (2k n = 4).
Description: (§2) CYP450 inhibition assays utilized microsomes from insect cells that express recombinant human CYP2D6 and CYP3A4 isoforms (Corning) with substrates of CYP2D6 (3-[2-(N,N-diethyl-N-methylammonium)-ethyl]-7-methoxy-4-methylcoumarin iodide, AMMC) and CYP3A4 (7-benzyloxy-4-trifluoromethylcoumarin, BFC) capable of producing fluorescent metabolites.[51],[52] […] A 100 mM sodium phosphate buffer was prepared and adjusted to a pH 7.4. In a separate falcon tube, a 2× enzyme–substrate (E–S) solution was prepared in phosphate buffer. The final concentrations of CYP2D6 and AMMC were 10 nM and 4 μM, respectively. The final concentrations of CYP3A4 and BFC were 20 nM and 40 μM, respectively. In a separate falcon tube, 2X solutions of the NADPH regenerating system (NRS) were prepared in phosphate buffer. The final concentrations for each NRS component in the corresponding assays were as follows: (1) CYP2D6 assay = 0.008 mM NADPH, 3.3 mM glucose-6-phosphate, and 0.4 U of glucose-6-phosphate dehydrogenase/mL and (2) CYP3A4 assay = 2.45 mM NADPH, 24.7 mM glucose-6-phosphate, and 1.25 U of glucose-6-phosphate dehydrogenase/mL.
(§3) Both enzymatic assays were conducted in a 96-well microtiter plate (Black, Corning Costar) with a final volume of 100 μL per well. Preparation of each plate began with the addition of 74 μL of the 2× E–S solution in the first well and 50 μL to all remaining wells (2–11) in the same row. […] 3-Fold serial dilutions of the test compounds were subsequently conducted by removing 25 μL from the first well and adding it to the second, followed by removing 25 μL from the second well and adding it to the third, and so forth until the 10th row. This procedure provided final concentrations for the test compound ranging from 100 to 0.01 μM across the same row (50 μL total for each well). Well 11 contained no test compound (0% inhibition and 100% activity). Well 12 contained 50 μL of substrate and test compound (100 μM) absent from the enzyme (0% activity, 100% inhibition). Wells 11 and 12 were used as controls for background fluorescence as described below. Each plate was then incubated for 30 min at 37 °C. After incubation was complete, reactions were initiated by the addition of 50 μL of 2X NRS to wells 1–12 (final well volume of 100 μL). Fluorescence measurements were immediately (<1 min) taken using a microplate reader (BioTek Synergy Neo 2). CYP2D6 was monitored at Ex/Em = 410/460 nm, and CYP3A4 was monitored at Ex/Em = 410/538 nm. Next, measurements were conducted in kinetic mode with scans every 5 min for 60 min. Two time points (30 and 60 min) were then chosen in the linear phase of the kinetic graph (reaction progression curve), and the corresponding relative fluorescence units (RFUs) at these time points were used to determine the rate of change in fluorescence according to the following equations [drawing 6] 3 [drawing 7] 4 [drawing 8] 5 where eq 3 defines the difference in RFUs between the 60 and 30 min time points, eq 4 normalizes the background-adjusted ΔRFU to no inhibitor control, and eq 5 converts % inhibition to % activity.
(§4) The resulting data were then exported and analyzed using Graph Pad Prism v7. The concentration of each test compound required to inhibit 50% substrate metabolism (IC50) was subsequently calculated from the resulting 10-point concentration–response curves (normalized fluorescence versus log[inhibitor]) using four-parameter logistic nonlinear regression (see Figure S4B for a representative example).

Data set [5] has as its target CYP3A4 (Homo sapiens, UniProt P08684). Description: biochemical.
Description: as §2, §3, §4

Chain of CYP3A4 (P08684 whole entry): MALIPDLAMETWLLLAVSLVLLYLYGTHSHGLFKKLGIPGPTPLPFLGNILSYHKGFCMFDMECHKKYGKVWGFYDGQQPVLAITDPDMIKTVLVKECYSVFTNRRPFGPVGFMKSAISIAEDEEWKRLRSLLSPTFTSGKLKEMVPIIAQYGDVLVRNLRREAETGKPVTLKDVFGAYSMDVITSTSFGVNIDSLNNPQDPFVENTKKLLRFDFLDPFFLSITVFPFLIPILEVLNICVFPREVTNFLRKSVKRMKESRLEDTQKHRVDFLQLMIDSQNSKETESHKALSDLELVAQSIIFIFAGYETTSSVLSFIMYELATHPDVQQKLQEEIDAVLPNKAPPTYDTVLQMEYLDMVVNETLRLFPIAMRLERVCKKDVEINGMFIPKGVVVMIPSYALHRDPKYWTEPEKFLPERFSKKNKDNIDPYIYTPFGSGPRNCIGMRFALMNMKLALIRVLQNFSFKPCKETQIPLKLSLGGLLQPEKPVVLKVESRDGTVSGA
T1 sequence (P10635 whole entry): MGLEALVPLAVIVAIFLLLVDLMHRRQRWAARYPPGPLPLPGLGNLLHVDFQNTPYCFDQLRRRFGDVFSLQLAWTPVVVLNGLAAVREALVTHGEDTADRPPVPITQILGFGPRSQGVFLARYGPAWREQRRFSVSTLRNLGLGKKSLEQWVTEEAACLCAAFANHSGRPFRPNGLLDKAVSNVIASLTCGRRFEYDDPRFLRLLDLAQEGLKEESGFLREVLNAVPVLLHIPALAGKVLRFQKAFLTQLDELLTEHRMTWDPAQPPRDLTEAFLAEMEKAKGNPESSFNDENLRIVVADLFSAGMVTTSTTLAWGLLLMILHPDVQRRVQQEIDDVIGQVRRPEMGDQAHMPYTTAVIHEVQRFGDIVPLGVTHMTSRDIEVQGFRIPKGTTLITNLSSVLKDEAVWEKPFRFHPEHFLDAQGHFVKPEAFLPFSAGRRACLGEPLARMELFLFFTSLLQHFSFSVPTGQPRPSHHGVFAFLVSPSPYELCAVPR

As usually defined, the microsomal CLint is a measure of how fast metabolising enzymes remove a compound, apart from limits set by blood flow. The low end stands for greater metabolic stability, the high end for faster metabolism. What is called share remaining is the share of the starting amount still present when the sample was taken. Lower therefore signals a greater loss. The IC50 is the concentration needed to halve the response being measured. A high value points to weaker potency in that assay. Turning to `CN(C)C(=O)CC(F)(F)C(=O)N1N=C(c2c(-c3ccc(Cl)cc3)c3ccccc3[nH]c2=O)CC1c1ccc(Cl)cc1` (centres unmarked) [2r], the microsomal CLint at 3 μM in data set [1] amounted to 165 µL/min/mg. The half-life at 3 μM in data set [1] is at most 7 min; in data set [3], over 120 min. Also, the fraction unbound at 4 h, 5 µM in data set [2] (pH 7.4, mouse brain tissue binding (free fraction in brain), read-out: % Unbound) is under 0.001; in data set [2] (pH 7.4, mouse brain tissue binding, RED, 4 h, read-out: % Bound Mean ± SD (converted)) it was under 0.001; in data set [2] (pH 7.4, mouse brain tissue binding, RED, 4 h, read-out: % Bound R1 (converted)) it was under 0.001; in data set [2] (pH 7.4, mouse brain tissue binding, RED, 4 h, read-out: % Bound R2 (converted)) it was under 0.001. In data set [2] (4 h), this molecule registered a fraction remaining at 4 h, 5 µM of 93%. The molecule also showed a recovery at 4 h, 5 μM in data set [2] (RED, 4 h) of 90%. In addition, in data set [2] (brain homogenate chamber after 4 h dialysis), the “Average 2i Concentration, Brain_Mice” value is on record as “BLQ”. Besides, the “Average 2i Concentration, Brain_St_0Hr_Mice” value in data set [2] (brain homogenate stability sample, 0 h) was “BLQ”. In addition, the “Average 2i Concentration, Brain_St_4Hr_Mice” value in data set [2] (brain homogenate stability sample, 4 h) is listed as “BLQ”. For the same molecule, in data set [2], the “Average 2i Concentration, Buffer_Mice” value is “BLQ”. Moreover, the IC50 in data set [4] and in data set [5] was over 20 µM each time.

In the case of `CCOC(=O)CC(F)(F)C(=O)N1N=C(c2c(-c3ccc(Cl)cc3)c3ccccc3[nH]c2=O)CC1c1ccc(Cl)cc1` (centres unmarked) [2l], the microsomal CLint at 3 μM in data set [1] turned out to be 193 µL/min/mg. Further, the half-life at 3 μM in data set [1] was found to be 3.6 min; in data set [3], 4.2 min. This molecule returned an amount remaining at 4 h, 5 µM in data set [2] (4 h) of 43%. The molecule also gave a recovery at 4 h, 5 μM in data set [2] (RED, 4 h) of 41%. Further, the “Average 2i Concentration, Buffer_Mice” value in data set [2] is recorded as “BLQ”. The figures for the IC50 in data set [4] and in data set [5] were over 20 µM and 7.8 ± 0.1 µM, respectively.
